Data set [1] has as its target T1, Broad substrate specificity ATP-binding cassette transporter ABCG2 (Homo sapiens, UniProt Q9UNQ0).
T1 sequence (Q9UNQ0 whole entry): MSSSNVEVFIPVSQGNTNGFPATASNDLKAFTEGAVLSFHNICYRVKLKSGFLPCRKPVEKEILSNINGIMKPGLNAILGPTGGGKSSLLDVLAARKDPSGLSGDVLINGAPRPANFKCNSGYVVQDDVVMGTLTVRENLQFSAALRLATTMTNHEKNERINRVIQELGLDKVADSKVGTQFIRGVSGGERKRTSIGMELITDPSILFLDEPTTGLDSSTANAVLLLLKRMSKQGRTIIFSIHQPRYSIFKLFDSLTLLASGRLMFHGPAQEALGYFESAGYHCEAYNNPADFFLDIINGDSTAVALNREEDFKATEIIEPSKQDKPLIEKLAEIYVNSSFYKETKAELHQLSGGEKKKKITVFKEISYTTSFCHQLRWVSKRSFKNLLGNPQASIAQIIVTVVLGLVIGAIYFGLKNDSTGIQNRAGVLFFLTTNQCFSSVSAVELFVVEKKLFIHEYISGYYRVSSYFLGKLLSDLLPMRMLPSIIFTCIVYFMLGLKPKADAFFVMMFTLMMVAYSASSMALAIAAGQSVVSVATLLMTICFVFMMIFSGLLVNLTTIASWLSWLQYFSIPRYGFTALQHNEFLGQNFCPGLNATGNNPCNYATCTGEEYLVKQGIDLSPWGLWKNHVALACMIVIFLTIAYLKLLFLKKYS
Nature of the data set: Inhibition of ABCG2 (unknown origin) expressed in human K562 cells assessed as extrusion of Hoechst 33342 using Hoechst 33342 as substrate by flow cytometry. The format is cell-based. On the technique in general: A flow cytometer gives signals particle by particle.

The target in data set [2] is T1, Broad substrate specificity ATP-binding cassette transporter ABCG2. Nature of the data set: Inhibition of ABCG2 (unknown origin) expressed in human HEK293 cells membrane vesicles assessed inhibition of BCRP- mediated transport of 3[H]-E1S for 1 to 5 mins using [3H]-estrone sulfate as substrate by rapid filtration technique. The format is cell membranes, Membrane vesicle.

Data set [3] shares this target. Briefly: Inhibition of ABCG2 (unknown origin) expressed in human S1M180 cells mediated [3H]-mitoxantrone efflux assessed as intracellular [3H]-mitoxantrone level by flow cytometry. Format: cell-based.
The target is the same in data set [4]. Nature of the data set: Inhibition of ABCG2 (unknown origin) expressed in human MCF7 cells membrane mediated [125I]iodoarylazidoprazosin photolabelling for 10 mins followed by UV light irradiation for 10 mins by radiometric scintillation analysis. Format: cell membranes.
The target is the same in data set [5]. Nature of the data set: Inhibition of ABCG2 (unknown origin) expressed in human HEK293 cells mediated mitoxantrone efflux assessed as intracellular mitoxantrone level and measured after 30 mins by FACSflow cytometry analysis. Format: cell-based.
For data set [6] the target is unchanged. Nature of the data set: Inhibition of ABCG2 (unknown origin) expressed in human NCI-H460 cells mediated pheophorbide A efflux for 2 to 20 hr by fluorescence plate reader analysis. Format: cell-based.
Data set [7] has the same target. Nature of the data set: Inhibition of ABCG2 (unknown origin) expressed in human S1M180 cells assessed as intracellular accumulation of rhodamine 123 using rhodamine 123 as substrate by flow cytometry. Format: cell-based.
Data set [8] has the same target. Nature of the data set: Inhibition of human ABCG2 expressing membrane vesicles assessed inhibition of BCRP- mediated transport of [3H]estrone 3-sulfate for 2 mins using [3H]-estrone sulfate as substrate by radiometric scintillation analysis. The format is cell membranes, Membrane vesicle.
Data set [9] has the same target. Briefly: Inhibition of ABCG2 (unknown origin) expressed in human HEK293 cells assessed as BODIPY-Prazosin uptake and measured after 2 hrs by FACScan flow cytometry analysis. The format is cell-based.
The target is the same in data set [10].
Description: Inhibition of ABCG2 (unknown origin) expressed in human MCF7 cells membrane mediated [125I]iodoarylazidoprazosin photolabelling for 5 mins followed by UV light irradiation for 10 mins by radiometric scintillation analysis
The target is the same in data set [11]. To be noted: saos-2.
Description: Inhibition of ABCG2 (unknown origin) expressed in human SAOS-2 cells mediated Hoechst 33342 efflux preincubated with compound for 15 mins followed by substrate addition and measured after 45 mins using Hoechst 33342 as substrate by flow cytometry
Data set [12] shares this target. Nature of the data set: Inhibition of human ABCG2 expressed in dog MDCK-II-BCRP cells membrane vesicles mediated transport of 3[H]-methotrexate for 5 mins using [3H]-methotrexate as substrate by radiometric scintillation analysis. Format: cell membranes, Membrane vesicle.
The target is the same in data set [13]. Nature of the data set: Inhibition of human ABCG2 expressed in human HEK293 cells mediated pheophorbide A efflux assessed as intracellular pheophorbide A accumulation for 45 mins by FACSort flow cytometry. The format is cell-based.
The target is the same in data set [14]. Nature of the data set: Inhibition of ABCG2 (unknown origin) expressed in human MCF7-VP cells mediated mitoxantrone efflux assessed as intracellular mitoxantrone level and measured after 45 mins by flow cytometry analysis. Format: cell-based.

One may read the IC50 as the concentration at which inhibition is half-maximal. Take `COc1cc(Nc2c(C#N)cnc3cc(OCCCN4CCN(C)CC4)c(OC)cc23)c(Cl)cc1Cl` [BOSUTINIB]: the concentration for half-maximal inhibition (IC50) in data set [1] came to 2000 nM.
Turning to `O[C@@H](c1cc(C(F)(F)F)nc2c(C(F)(F)F)cccc12)[C@H]1CCCCN1` [(S,R)-MEFLOQUINE], the IC50 in [2] is 18000 nM.
Turning to `CNC(=O)c1cc(Oc2ccc(NC(=O)Nc3ccc(Cl)c(C(F)(F)F)c3)c(F)c2)ccn1` [REGORAFENIB], the IC50 in data set [3] was 3000 nM.
As to `COc1cc2nccc(Oc3ccc(NC(=O)Nc4cc(C)on4)c(Cl)c3)c2cc1OC` [TIVOZANIB], the IC50 in data set [4] worked out at 70 nM.
Consider `c1ccc2c(c1)OCO2`, for which, in data set [5], the IC50 came to 940 nM.
For `COC(=O)[C@H]1[C@H]2C[C@@H]3c4[nH]c5cc(OC)ccc5c4CCN3C[C@H]2C[C@@H](OC(=O)c2cc(OC)c(OC)c(OC)c2)[C@@H]1OC` [RESERPINE], the concentration for half-maximal inhibition (IC50) in data set [6] was determined as 11800 nM.
`COc1cc2c(Nc3ccc(Br)cc3F)ncnc2cc1OCC1CCN(C)CC1` [VANDETANIB]: the IC50 in data set [7] came to 200 nM.
With `COc1cc(Nc2ncc(F)c(Nc3ccc4c(n3)N(COP(=O)(O)O)C(=O)C(C)(C)O4)n2)cc(OC)c1OC` [FOSTAMATINIB], the IC50 in data set [8] worked out at 50 nM.
As for `CS(=O)(=O)c1ccc(C(=O)Nc2ccc(Cl)c(-c3ccccn3)c2)c(Cl)c1` [VISMODEGIB], in data set [9], the IC50 was 1400 nM.
In turn, `CS(=O)(=O)CCNCc1ccc(-c2ccc3ncnc(Nc4ccc(OCc5cccc(F)c5)c(Cl)c4)c3c2)o1` [LAPATINIB] showed an IC50 in data set [10] of 3200 nM.
In data set [11], `CNC(=O)c1cc(Oc2ccc(NC(=O)Nc3ccc(Cl)c(C(F)(F)F)c3)cc2)ccn1` [SORAFENIB] had an IC50 of 3100 nM.
With `CC1=NN(c2ccc(C)c(C)c2)C(=O)/C1=N\Nc1cccc(-c2cccc(C(=O)O)c2)c1O` [ELTROMBOPAG], the IC50 in data set [12] stood at 3100 nM.
With `COC(=O)C1=C(C)NC(C)=C(C(=O)OC)C1c1ccccc1[N+](=O)[O-]` [NIFEDIPINE], in data set [13], the half-inhibitory concentration (IC50) amounted to 50500 nM.
For the molecule `COc1cc(/C=C/C(=O)CC(=O)/C=C/c2ccc(O)c(OC)c2)ccc1O` [CURCUMIN], in data set [14], the IC50 turned out to be 1630 nM.

For the origin of these results see ChEMBL document CHEMBL5126555, “Targeting breast cancer resistance protein (BCRP/ABCG2): Functional inhibitors and expression modulators” (Eur J Med Chem, 2022).
